Values of other authors as cited in patent US5962457A, “2,3 Disubstituted- (5,6)-heteroarylfused-pyrimidine-4-ones” (Pfizer Inc., priority 1997, dated 1999).

Tests used:
[1] = rat global ischemia models; LaPeillet et al.
[2] = focal and global ischemia models; Sheardown et al., Buchan et al., LePeillet et al.

Structure (SMILES)	neuroprotection in global ischemia [1]	prevention of global and focal ischemic damage [2]
CC1=NN=C(c2ccc(N)cc2)c2cc3c(cc2C1)OCO3 [GKYI 52466]	effective neuroprotective agent	–
NS(=O)(=O)c1cccc2c1c([N+](=O)[O-])cc1[nH]c(=O)c(=O)[nH]c12 [NBQX, 2,3-dihydroxy-6-nitro-7-sulfamoylbenzo[f-]quinoxaline]	–	effective in preventing global and focal ischemic damage
